From patent publication US8591880B2, “Gut flora and weight management” (priority 2007, dated 2013)
Where two headings read alike, the source gives them in different places.

Tests used:
Type in all cases: cell-based
Lactobacillus = assay: In vitro antibiotic susceptibility strip test, Lactobacillus; details: colonies from feces of ob/ob mice; for Susceptibility class, Lactobacillus: MRS/cystein agar, strip test; for Count in brackets, Lactobacillus: fraction given, not defined
Bacteroides = assay: In vitro antibiotic susceptibility strip test, Bacteroides; details: for Count in brackets, Bacteroides: fraction given, not defined
Bifidobacteria = assay: In vitro antibiotic susceptibility strip test, Bifidobacteria; details: colonies from feces of ob/ob mice; for Susceptibility class, Bifidobacteria: MRS/cystein agar, strip test; for Count in brackets, Bifidobacteria: fraction given, not defined
Enterobacteria = assay: In vitro antibiotic susceptibility strip test, Enterobacteria; details: for Susceptibility class, Enterobacteria / Count in brackets, Enterobacteria: colonies from feces of ob/ob mice; for Susceptibility class, Enterobacteria: Mueller Hinton agar, strip test; for Count in brackets, Enterobacteria: fraction given, not defined; for Growth / susceptibility of fecal enterobacteria, in words: summary of Table 1
[1] = colonies from feces of ob/ob mice
[2] = colonies from feces of ob/ob mice, Brucella agar, strip test

SMILES | Susceptibility class, Lactobacillus (Lactobacillus) | Count in brackets, Lactobacillus (Lactobacillus) | Susceptibility class, Bacteroides (Bacteroides) | Count in brackets, Bacteroides (Bacteroides; [1]) | Susceptibility class, Bifidobacteria (Bifidobacteria) | Count in brackets, Bifidobacteria (Bifidobacteria) | Susceptibility class, Enterobacteria (Enterobacteria) | Count in brackets, Enterobacteria (Enterobacteria) | Growth / susceptibility of fecal enterobacteria, in words (Enterobacteria) | Susceptibility class, Bacteroides (Bacteroides; [2])
CC1(C)S[C@@H]2[C@H](NC(=O)[C@H](N)c3ccc(O)cc3)C(=O)N2[C@H]1C(=O)O [Amoxicillin, amoxicillin] | S | 33/33 | S/R (14/16) | S/R (14/16) | S | 3/3 | R | 0/19 | resistant | 
CC1(C)S[C@@H]2[C@H](NC(=O)[C@H](N)c3ccccc3)C(=O)N2[C@H]1C(=O)O [Ampicillin, ampicillin] | S | 33/33 |  | 16/16 | S | 3/3 | S/R | 13/19 | only partially sensitive | S
CCn1cc(C(=O)O)c(=O)c2cc(F)c(N3CCNCC3)cc21 [Norfloxacin, norfloxacin] | S/R | 25/33 |  | 0/16 | R | 0/3 | S | 19/19 | capable of suppressing the growth | R
